According to publication PMC6268492, “Synthesis and Antiangiogenic Activity of Novel Gambogic Acid Derivatives” (Molecules, 2012):
Where two headings read alike, the source gives them in different places.

Legend:
[1] = test system: LO2; assay: MTT assay, cytotoxicity; type: cell-based; details: read-out: IC50, inhibition of cell proliferation
Method: (§1) HepG2, HCT116, HeLa and LO2 cell lines were cultured in DMEM containing 10% fetal bovine serum (FBS), 100 IU/mL penicillin and 100 µg/mL streptomycin; A549 and K562 cell lines were cultured in RPMI 1640 medium containing 10% fetal bovine serum (FBS), 100 IU/mL penicillin and 100 µg/mL streptomycin; Human umbilical vein endothelial cells (HUVECs) were cultured on gelatin-coated culture flasks in M-199 medium with 20% fetal bovine serum (FBS), 2 ng/mL VEGF, 10 ng/mL basic FGF, 100 IU/mL penicillin, and 100 μg/mL streptomycin; all of them were obtained from the American Type Culture Collection (ATCC) and all cell lines were incubated in an atmosphere of 5% CO2 at 37 °C.
(§2) Cells were treated with various concentrations of compound in 96-well culture plates for 24 h in final volumes of 200 μL (5 × 10^3 cells/well). Then 20 μL of MTT solution (5 mg/mL) was added to each well, and cells were incubated for an additional 3 h. Then the medium was carefully removed, and precipitates were dissolved in 150 μL of DMSO, shaken mechanically for 30 min, and then absorbance values at a wavelength of 570 nm were taken on a spectrophotometer (Molecular Devices, Sunnyvale, CA, USA). Values were calculated using percentage of growth versus untreated control. The IC50 was defined as the concentration that caused 50% inhibition of cell proliferation, and was calculated by SAS statistical software.

[2] = test system: transgenic fli-1: enhanced GFP zebrafish embryos; assay: Zebrafish embryo assay: antiangiogenic effects; type: in vivo, zebrafish (Danio rerio); details: for antiangiogenic rates / inhibition in vivo at 1 µM: 1 μM; for antiangiogenic rates / inhibition in vivo at 10 µM / inhibition in vivo at 1 µM / inhibition in vivo at 2.5 µM: zebrafish embryos; for inhibition in vivo at 10 µM / inhibition in vivo at 1 µM / inhibition in vivo at 2.5 µM: Danio rerio; for antiangiogenic activities / inhibition in vivo at 2.5 µM: 2.5 μM; for antiangiogenic activities: not enhanced greatly at 10 μM
Method: As stated previously, zebrafish is regarded as a powerful tool in the study of human diseases. […] In this study, all GA derivatives were incubated with the transgenic friend leukemia integration-1 (fli-1): enhanced GFP zebrafish embryos which carried a fli-1 promoter which can drive the expression of GFP in the whole endothelium.
Figure 1 Effects on neovascularization in zebrafish embryos. The transgenic fli-1: enhanced GFP zebrafish embryos in embryo water (0.2 g/L of instant ocean salt in distilled water) incubated with 1 μM of compounds at 6 h postfertilization (hpf) for 24 h. Zebrafish embryos were imaged (Imager.Z1, magnification: left, 40×; right, 100×).
Using transgenic fli-1: enhanced GFP zebrafish embryos, we investigated the effects of all compounds on angiogenesis. […] At about 6 h post fertilization (hpf), the embryos were sorted in the 6-well plate (six embryos/well), removing dead and unhealthy embryos. Then the embryos were treated with the indicated concentrations of compounds which were added into embryo water. After incubation for 24 or 48 h, the embryos were anesthetized using 0.05% 2-phenoxyethanol in embryo water, quantified and photographed.

[3] = test system: A549; assay: MTT assay, cell proliferation; type: cell-based; details: 24 h, read-out: IC50, inhibition of cell proliferation
Method: as §1, §2

[4] = test system: HCT116; assay: MTT assay, cell proliferation; type: cell-based; details: read-out: IC50, inhibition of cell proliferation
Method: as §1, §2

[5] = test system: K562; assay: MTT assay, cell proliferation; type: cell-based; details: 24 h, read-out: IC50, inhibition of cell proliferation
Method: as §1, §2

[6] = test system: HeLa; assay: MTT assay, cell proliferation; type: cell-based; details: 24 h, read-out: IC50, inhibition of cell proliferation
Method: as §1, §2

[7] = test system: HepG2; assay: MTT assay, cell proliferation; type: cell-based; details: 24 h, read-out: IC50, inhibition of cell proliferation
Method: as §1, §2

[8] = test system: HUVEC; assay: MTT assay, cell proliferation; type: cell-based, Human; details: 24 h, read-out: IC50, inhibition of cell proliferation
Method: Inhibiting the proliferation of ECs is another important strategy for antiangiogenesis. […] As the exposure time of these derivatives was 24 h in the migration assay and 6 h in the tube formation assay, the effect of the incubation for 24 h in the presence of these compounds on HUVECs proliferation was then tested. Cell viability was assessed by the MTT method. We can see from Table 4 that these compounds had different antiproliferative activities.
as §1, §2

[9] = vs vehicle (0.05% DMSO), read-out: Anti-angiogenic phenotype

Compound | IC50 ([1]; Homo sapiens, L02, 24 h) | antiangiogenic rates [2] | inhibition in vivo at 10 µM [2, 9] | IC50 ([3]; Homo sapiens) | IC50 ([4]; Homo sapiens, HCT-116, 24 h) | IC50 ([5]; Homo sapiens) | IC50 ([6]; Homo sapiens) | IC50 ([7]; Homo sapiens) | IC50 ([8]; Homo sapiens) | antiangiogenic activities [2] | inhibition in vivo at 1 µM ([2]; read-out: antiangiogenic rates) | inhibition in vivo at 1 µM [2, 9] | inhibition in vivo at 2.5 µM [2, 9] | IC50 ([1]; 24 h) | IC50 [3] | IC50 ([4]; 24 h) | IC50 [5] | IC50 [6] | IC50 [7] | IC50 [8]
CC(C)=CCCC1(C)C=Cc2c(O)c3c(c(CC=C(C)C)c2O1)OC12C(=CC4CC1C(C)(C)OC2(C/C=C(/C)C(=O)Oc1ccc(C(=O)CBr)cc1)C4=O)C3=O (stereo not drawn) [Compound 16, 4-(2-Bromoacetyl)phenyl gambogate] | 5.25 ± 0.51 µM | inactive | 25 to 50% | > 80 µM | 5.08 ± 0.77 µM | 3.46 ± 0.34 µM | 8.98 ± 0.58 µM | 4.51 ± 0.29 µM | 11.9 ± 1.36 µM |  |  |  |  |  |  |  |  |  |  | 
CCCC(=O)Nc1ccc(OC(=O)/C(C)=C\CC23OC(C)(C)C4CC(C=C5C(=O)c6c(O)c7c(c(CC=C(C)C)c6OC542)OC(C)(CCC=C(C)C)C=C7)C3=O)cc1 (stereo not drawn) [Compound 26, 4-Butyramidophenyl gambogate] | 4.22 ± 0.5 µM |  | 25 to 50% | 4 ± 0.8 µM | 1.73 ± 0.44 µM | 0.77 ± 0.03 µM | 4.46 ± 0.57 µM | 1.72 ± 0.12 µM | 2.98 ± 0.1 µM | moderate | 25 to 50% | 25 to 50% | 25 to 50% |  |  |  |  |  |  | 
CC(C)=CCCC1(C)C=Cc2c(O)c3c(c(CC=C(C)C)c2O1)OC12C(=CC4CC1C(C)(C)OC2(C/C=C(/C)C(=O)Oc1ccc(Cl)cc1C=O)C4=O)C3=O (stereo not drawn) [Compound 23, 4-Chloro-2-formylphenyl gambogate] | 31.7 ± 1.94 µM | inactive | 25 to 50% | 73.5 ± 3.4 µM | 15.9 ± 1.46 µM | 15.5 ± 1.35 µM | 61.6 ± 5.86 µM | 19.9 ± 2.89 µM | 32 ± 1.76 µM |  |  |  |  |  |  |  |  |  |  | 
COc1ccc(OC(=O)/C(C)=C\CC23OC(C)(C)C4CC(C=C5C(=O)c6c(O)c7c(c(CC=C(C)C)c6OC542)OC(C)(CCC=C(C)C)C=C7)C3=O)cc1Br (stereo not drawn) [Compound 22, 2-Bromo-4-methoxyphenyl gambogate] | > 80 µM | inactive | 25 to 50% | > 80 µM | 36.9 ± 0.64 µM | 36.9 ± 0.56 µM | > 80 µM | 63.2 ± 3.88 µM | 51.3 ± 1.1 µM |  |  |  |  |  |  |  |  |  |  | 
3-Ethanonephenyl gambogate [Compound 11] |  |  |  |  |  |  |  |  |  |  |  |  |  | 3.94 ± 0.19 µM | 3.31 ± 0.45 µM | 3.13 ± 0.3 µM | 2.09 ± 0.19 µM | 3.31 ± 0.24 µM | 3.64 ± 0.53 µM | 3.48 ± 0.18 µM
CC(C)=CCCC1(C)C=Cc2c(O)c3c(c(CC=C(C)C)c2O1)OC12C(=CC4CC1C(C)(C)OC2(C/C=C(/C)C(=O)Oc1ccc(C=O)cc1)C4=O)C3=O (stereo not drawn) [Compound 20, 4-Formylphenyl gambogate] | 9.92 ± 0.52 µM | inactive | 25 to 50% | 31.2 ± 2.29 µM | 7.9 ± 0.14 µM | 4.52 ± 0.43 µM | 24.3 ± 2.13 µM | 5.86 ± 0.4 µM | 7.7 ± 0.32 µM |  |  |  |  |  |  |  |  |  |  | 
CC(C)=CCCC1(C)C=Cc2c(O)c3c(c(CC=C(C)C)c2O1)OC12C(=CC4CC1C(C)(C)OC2(C/C=C(/C)C(=O)Oc1ccc2ccc(=O)oc2c1)C4=O)C3=O (stereo not drawn) [Compound 7, Coumarin-7-gambogate] | 8.28 ± 0.33 µM |  |  | 15.4 ± 2.57 µM | 6 ± 0.4 µM | 2.5 ± 0.12 µM | 16.1 ± 0.55 µM | 10.8 ± 1.1 µM | 10.9 ± 0.72 µM |  |  |  |  |  |  |  |  |  |  | 
CC(C)=CCCC1(C)C=Cc2c(O)c3c(c(CC=C(C)C)c2O1)OC12C(=CC4CC1C(C)(C)OC2(C/C=C(/C)C(=O)Oc1cccc(C)c1[N+](=O)[O-])C4=O)C3=O (stereo not drawn) [Compound 14, 3-Methyl-2-nitrophenyl gambogate] | 70.8 ± 2.47 µM |  |  | > 80 µM | 34.8 ± 1.84 µM | 22.6 ± 0.53 µM | > 80 µM | 40.6 ± 2.75 µM | 42 ± 2.76 µM |  |  |  |  |  |  |  |  |  |  | 
CC(C)=CCCC1(C)C=Cc2c(O)c3c(c(CC=C(C)C)c2O1)OC12C(=CC4CC1C(C)(C)OC2(C/C=C(/C)C(=O)Oc1ccc(NC(=O)CCCl)cc1)C4=O)C3=O (stereo not drawn) [Compound 9, 3-Chloro-N-(4-phenylgambogate)propanamide] | 1 ± 0.1 µM |  | 25 to 50% | 3.75 ± 0.35 µM | 2.05 ± 0.41 µM | 1.14 ± 0.03 µM | 3.42 ± 0.19 µM | 5.16 ± 0.55 µM | 4.27 ± 0.25 µM | moderate | < 25% | < 25% | 25 to 50% |  |  |  |  |  |  | 
CC(C)=CCCC1(C)C=Cc2c(O)c3c(c(CC=C(C)C)c2O1)OC12C(=CC4CC1C(C)(C)OC2(C/C=C(/C)C(=O)Oc1cc2ccccc2oc1=O)C4=O)C3=O (stereo not drawn) [Compound 6, Coumarin-3-gambogate] | > 20 µM |  |  | 19.7 ± 2.62 µM | 14.5 ± 1.22 µM | 5.47 ± 0.15 µM | 33.3 ± 1.83 µM | 25.8 ± 1.76 µM | 14.6 ± 0.34 µM |  |  |  |  |  |  |  |  |  |  | 
COCCc1ccc(OC(=O)/C(C)=C\CC23OC(C)(C)C4CC(C=C5C(=O)c6c(O)c7c(c(CC=C(C)C)c6OC542)OC(C)(CCC=C(C)C)C=C7)C3=O)cc1 (stereo not drawn) [Compound 18, 4-(2-Methoxyethyl)phenyl gambogate] | 15.2 ± 0.72 µM |  |  | 66.2 ± 1.65 µM | 2.45 ± 0.15 µM | 7.52 ± 0.83 µM | > 80 µM | 6.45 ± 0.37 µM | 10.4 ± 1.08 µM |  |  |  |  |  |  |  |  |  |  | 
CC(C)=CCCC1(C)C=Cc2c(O)c3c(c(CC=C(C)C)c2O1)OC12C(=CC4CC1C(C)(C)OC2(C/C=C(/C)C(=O)Oc1ccccc1Br)C4=O)C3=O (stereo not drawn) [Compound 17, 2-Bromophenyl gambogate] | 72.8 ± 2.84 µM |  |  | > 80 µM | 33 ± 1.27 µM | 27 ± 1.41 µM | > 80 µM | 61.9 ± 2.69 µM | 29.9 ± 1.44 µM |  |  |  |  |  |  |  |  |  |  | 
